# In BindingDB's records for doi:10.7270/Q2F769ZM (The Scripps Research Institute Molecular Screening Center, 2007):
# Biological target: Rho-associated protein kinase 2 (Homo sapiens, UniProt O75116)
# Assay: human Rho kinase 2 inhibition – biochemical, Kinase-Glo luminescence, S6 peptide, 1536-well, dose response (AID 644)
# Conditions: not given
# Sequence of Rho-associated protein kinase 2 (O75116 whole entry): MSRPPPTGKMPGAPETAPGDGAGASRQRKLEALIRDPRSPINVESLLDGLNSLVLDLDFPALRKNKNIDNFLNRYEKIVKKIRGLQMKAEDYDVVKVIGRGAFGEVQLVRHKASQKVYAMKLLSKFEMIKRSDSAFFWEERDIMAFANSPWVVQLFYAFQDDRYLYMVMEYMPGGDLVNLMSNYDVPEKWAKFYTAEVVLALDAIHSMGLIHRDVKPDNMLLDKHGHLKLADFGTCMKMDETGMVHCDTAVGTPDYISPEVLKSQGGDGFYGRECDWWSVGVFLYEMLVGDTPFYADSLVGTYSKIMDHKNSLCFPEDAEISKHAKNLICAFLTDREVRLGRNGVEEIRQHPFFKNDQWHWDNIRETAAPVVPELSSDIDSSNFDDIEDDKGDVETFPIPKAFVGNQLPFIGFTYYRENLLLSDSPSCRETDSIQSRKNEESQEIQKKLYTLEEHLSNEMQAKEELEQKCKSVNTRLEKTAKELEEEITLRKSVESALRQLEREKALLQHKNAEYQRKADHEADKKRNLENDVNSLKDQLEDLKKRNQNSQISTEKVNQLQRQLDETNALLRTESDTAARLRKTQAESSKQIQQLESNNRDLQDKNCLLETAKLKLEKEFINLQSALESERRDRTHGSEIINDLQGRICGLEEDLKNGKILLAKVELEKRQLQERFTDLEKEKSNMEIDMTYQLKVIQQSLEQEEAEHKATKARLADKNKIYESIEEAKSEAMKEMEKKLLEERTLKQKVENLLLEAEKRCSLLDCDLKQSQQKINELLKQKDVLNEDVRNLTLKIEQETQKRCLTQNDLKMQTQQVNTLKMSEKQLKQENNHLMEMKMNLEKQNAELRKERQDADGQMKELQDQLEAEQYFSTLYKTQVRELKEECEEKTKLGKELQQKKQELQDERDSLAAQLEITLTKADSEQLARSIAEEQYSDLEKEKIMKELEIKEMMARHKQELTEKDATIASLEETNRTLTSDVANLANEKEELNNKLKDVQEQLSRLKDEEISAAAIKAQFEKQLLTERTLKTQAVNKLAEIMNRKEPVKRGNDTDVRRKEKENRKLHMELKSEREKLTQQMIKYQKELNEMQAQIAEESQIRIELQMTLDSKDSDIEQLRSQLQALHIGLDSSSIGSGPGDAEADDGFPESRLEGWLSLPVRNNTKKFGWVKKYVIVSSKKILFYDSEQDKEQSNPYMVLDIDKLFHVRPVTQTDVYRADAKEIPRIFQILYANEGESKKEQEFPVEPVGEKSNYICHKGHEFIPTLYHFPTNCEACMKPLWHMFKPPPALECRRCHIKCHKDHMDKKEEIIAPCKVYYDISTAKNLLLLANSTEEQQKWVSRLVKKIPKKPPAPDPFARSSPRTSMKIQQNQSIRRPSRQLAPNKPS
row,IC50 [µM],SMILES
1,> 59.6,"Cc1cccc(N2CCN(C(=O)c3cn(C)c(=O)c4c3c3ccccc3n4C)CC2)c1C [4-[4-(2,3-dimethylphenyl)piperazin-1-yl]carbonyl-2,9-dimethyl-pyrido[3,4-b]indol-1-one]"
2,0.765,O=C(CSc1nnc(-c2ccncc2)[nH]1)c1ccccc1
3,127,N#CC1C(=N)Oc2cc(O)ccc2C1c1ccncc1 (stereo not drawn) [2-amino-7-hydroxy-4-(4-pyridyl)-4H-chromene-3-carbonitrile]
4,> 59.6,"c1cc2c(cc1Nc1nc(-c3ccc4c(c3)OCO4)cs1)OCCO2 [4-(1,3-benzodioxol-5-yl)-N-(2,3-dihydro-1,4-benzodioxin-6-yl)-1,3-thiazol-2-amine]"
5,> 19.9,"N#Cc1c(N=Cc2ccco2)sc2c1CCCCC2 [2-(2-furanylmethylideneamino)-5,6,7,8-tetrahydro-4H-cyclohepta[b]thiophene-3-carbonitrile]"
6,> 19.9,O=C(Nn1c(=S)[nH]c2ccccc2c1=O)c1ccncc1
7,> 59.6,"COc1ccc(CCC(=O)Nc2nc3c(s2)CN(C)CC3)cc1OC [3-(3,4-dimethoxyphenyl)-N-(5-methyl-6,7-dihydro-4H-[1,3]thiazolo[5,4-c]pyridin-2-yl)propanamide]"
8,23.1,Nc1nonc1-c1nc2ccccc2[nH]1
9,> 59.6,CCCCc1c(C)nc(N)[nH]c1=O [2-azanyl-5-butyl-6-methyl-1H-pyrimidin-4-one]
10,> 59.6,"CN(C(=O)c1cccc(-n2c(O)c3c(c2O)CC=CC3)c1)C1CCCCC1 [3-[1,3-bis(oxidanylidene)-3a,4,7,7a-tetrahydroisoindol-2-yl]-N-cyclohexyl-N-methyl-benzamide]"
11,> 19.9,COc1ccc2[nH]c(=O)c3c(c2c1)OC(C)(C)C=C3
12,> 19.9,CCCCC(=O)Nc1ccc2c(c1)C(=O)NC2=O [MLS000103070]
13,> 59.6,"O=c1ccc(=O)n2n1CC(O)C2 [2-hydroxy-2,3-dihydro-1H-pyrazolo[1,2-a]pyridazine-5,8-dione]"

row,SMILES,IC50 [µM]
1,CC(C)[C@H]1C(=O)N2CCC[C@H]2[C@]2(O)O[C@](NC(=O)[C@@H]3C=C4c5cccc6[nH]cc(c56)C[C@H]4N(C)C3)(C(C)C)C(=O)N12 [ERGOCORNINE],> 59.6
2,C1=C(c2c[nH]c3ccccc23)CCNC1,2.53
3,"c1ccc2c(c1)[nH]c1cnccc12 [9H-pyrido[3,4-b]indole]",> 19.9

# Same assay, conditions: inactive by the depositor's call
row,IC50 [µM],SMILES
1,55.7,O=C(Oc1cccc2c(=O)[nH]ccc12)c1ccccc1 [(1-oxo-2H-isoquinolin-5-yl) benzoate]
2,23.4,O=C(CSc1nc(-c2ccc(F)cc2)c[nH]1)Nc1cccc(O)c1 [2-[5-(4-Fluoro-phenyl)-1H-imidazol-2-ylsulfanyl]-N-(3-hydroxy-phenyl)-acetamide]
3,12.9,Nc1ccc2[nH]ncc2c1
4,19,"O=C(Nc1ccncc1)Nc1ccc(F)cc1F [1-(2,4-difluorophenyl)-3-(4-pyridyl)urea]"
5,79.1,"Clc1ccccc1-c1nnc2sc(-c3ccncc3)nn12 [3-(2-chlorophenyl)-6-(4-pyridyl)-[1,2,4]triazolo[3,4-b][1,3,4]thiadiazole]"
6,25.6,"O=C(Nc1ccc(N2CCOCC2)cc1)Nc1ccc2nc(-c3ccco3)c(-c3ccco3)nc2c1 [N-(2,3-di-2-furyl-6-quinoxalinyl)-N'-[4-(4-morpholinyl)phenyl]urea]"
7,13,Cc1cccc(Nc2ncnc3[nH]cnc23)c1 [N-(3-methylphenyl)-7H-purin-6-amine]
8,14.2,O=C(CCCOc1ccccc1)Nc1ccncc1 [4-Phenoxy-N-pyridin-4-yl-butyramide]
9,16.5,COc1ccc(N2CCN(c3ncnc4[nH]cnc34)CC2)cc1 [MLS000101243]
10,41.2,"COCCN(CCOC)S(=O)(=O)c1ccc(C(=O)Nc2nc(-c3ccncc3)cs2)cc1 [4-[bis(2-methoxyethyl)sulfamoyl]-N-(4-pyridin-4-yl-1,3-thiazol-2-yl)benzamide]"
11,11.6,"O=C(NCc1ccc2c(c1)OCO2)c1ccc2snnc2c1 [Benzo[1,2,3]thiadiazole-5-carboxylic acid (benzo[1,3]dioxol-5-ylmethyl)-amide]"

row,SMILES,IC50 [µM]
1,c1coc(CNc2ncnc3[nH]cnc23)c1,21.4
